# Measurements: patent publication US11793880B2, “Conjugates of quaternized tubulysin compounds” (Seagen Inc., priority 2015, dated 2023)
# Columns and labels:
# U266 MM = assay: In vitro assays - TubOEt analogues, CellTiter-Glo growth inhibition; format: cell-based; details: Homo sapiens, U-266; Table 3; lantern-made analogues >85% purity, 96 hour exposure
# Method: (§1) In vitro assays. Cells cultured in log-phase growth were seeded for 24 h in 96-well plates containing 150 μL RPMI 1640 supplemented with 20% FBS. Serial dilutions of antibody-drug conjugates in cell culture media were prepared at 4× working concentrations; 50 μL of each dilution was added to the 96-well plates. Following addition of ADC, cells were incubated with test articles for 4 d at 37° C. After 96 h, growth inhibition was assessed by CellTiter-Glo® (Promega, Madison, WI) and luminescence was measured on a plate reader. The IC50 value, determined in triplicate, is defined here as the concentration that results in a 50% reduction in cell growth relative to untreated controls.
# (§2) A series of analogues of the ethyl ether tubulysin compound TubOEt (41) were synthesized on solid phase lanterns that maintain the ethyl ether substitution, while either varying the residue at the Ile position (203-215) or the Mep position (216-221). Following cleavage from the solid phase, the analogues were obtained in >85% purity and tested without further purification. The compounds were tested in vitro for potency relative to a sample of TubOEt synthesized in parallel on a lantern (41-lantern), following a 96 hour exposure, with IC5O values expressed in nM (Table 3). While in many cases an attenuation in activity was observed relative to 41-lantern, some well-tolerated substitutions were found. […] While this stereochemical preference is not observed when Ile is replaced with O-methyl threonine (207) or O-methyl allothreonine (206), bulkier substituents led to a greater differentiation. […] Replacement of the Mep residue was generally less-well tolerated.
# Ramos, NHL = assay: as above; format: cell-based; details: Homo sapiens, Table 3, lantern-made analogues >85% purity, 96 hour exposure
# Method: as §1, §2
# HepG2, HCC = assay: as above; format: cell-based; details: Homo sapiens, Table 3, lantern-made analogues >85% purity, 96 hour exposure
# Method: as §1, §2
# [1] = test system: HepG2, L540cy, Ramos, U266, HL60, HL60/RV cell lines; assay: In vitro assays - TubOEt analogues, statements across the cell line panel; format: cell-based; details: Table 3 cell lines, 96 hour exposure
# Method: as §1, §2
# HL60, AML = assay: In vitro assays - tubulysin free drugs, CellTiter-Glo growth inhibition; format: cell-based
# Method: as §1
# (§3) In vitro assays—tubulysin free drugs. Cells were treated for 96 hours with tubulysin ether analogs (40-42) or tubulysin M (7), then assessed for viability as described in the methods.
# (§4) The tubulysin ester analogs (133-137) and unsaturated ether analogs (176-179) were tested in vitro for potency relative to tubulysin M (7), following a 96 hour exposure. As shown by IC50 values (nM) of Table 2, Tubulysin esters 133-136 performed comparably to tubulysin M, with similar potencies across of the cell lines.
# as §2
# HL60/RV, MDR + AML = assay: as above; format: cell-based
# Method: as §1, §3, §4, §2
# L540cy, HL [2] = assay: as above; format: cell-based
# Method: as §1, §3, §4, §2
# Karpas299, ALCL = assay: as above; format: cell-based; details: free drug
# Method: as §1, §3, §4
# L428, MDR + HL [3] = assay: as above; format: cell-based; details: free drug
# Method: as §1, §3, §4
# DEL/BVR, MDR + ALCL = details: Table 4; cAC10 ADCs DAR 8, 96 h
# Method: (§5) In vitro assays. Cells cultured in log-phase growth were seeded for 24 h in 96-well plates containing 150 μL RPMI 1640 supplemented with 20% FBS. Serial dilutions of antibody-drug conjugates in cell culture media were prepared at 4× working concentrations; 50 μL of each dilution was added to the 96-well plates. […] After 96 h, growth inhibition was assessed by CellTiter-Glo® (Promega, Madison, WI) and luminescence was measured on a plate reader.
# (§6) In vitro assays—tubulysin ADCs. ADCs were prepared by t Ell reduction of interchain disulfides to reveal 8-conjugatable cysteines/antibody that were alkylated through Michael addition with the maleimide-containing Drug Linker compounds. […] conjugates hearing quaternized tubulysin ethers with and without a PEG12 side-chain were compared to their tubulysin M analogs.
# (§7) Several hydrophilic linker constructs incorporating quaternized tubulysin M were prepared and evaluated in vitro; the results are shown in Table 5. The data (IC50 values in ng/mL) indicate that Conjugates prepared from Drug Linker compounds having quaternized tubulysin M linked via a hydrophilic ValGlu dipeptide with (95) or without (91) a PEG12 side chain, or linked via a hydrophilic glucuronide (82) provide ADCs that are equipotent to the ValAla comparator (15).
# L428, MDR + HL [4] = details: Table 4; cAC10 ADCs DAR 8, 96 h
# Method: as §5, §6, §7
# L540cy, HL [5] = details: Table 4; cAC10 ADCs DAR 8, 96 h
# Method: as §5, §6, §7
# [6] = Homo sapiens, HL-60, 96 h, Table 3, lantern-made analogues >85% purity, 96 hour exposure
# [7] = L540cy, 96 h, Table 3, lantern-made analogues >85% purity, 96 hour exposure
# [8] = Homo sapiens, KARPAS-299, 96 h, Table 1 (examples), 96 hours
# [9] = Homo sapiens, KARPAS-299, 96 h, Table 2, 96 hour exposure
# [10] = Homo sapiens, L-428, 96 h, Table 1 (examples), 96 hours
# [11] = Homo sapiens, L-428, 96 h, Table 2, 96 hour exposure
# [12] = Homo sapiens, HL-60, 96 h, Table 1 (examples), free drug, 96 hours
# [13] = Homo sapiens, HL-60, 96 h, Table 2, free drug, 96 hour exposure
# [14] = L540cy, 96 h, Table 1 (examples), free drug
# [15] = L540cy, 96 h, Table 2, free drug, 96 hour exposure
# [16] = Table 1 (examples), free drug, 96 hours
Compound,IC50 (U266 MM),"IC50 (Ramos, NHL)","IC50 (HepG2, HCC)","potency / cytotoxicity of TubOEt analogues, in words [1]","IC50 (HL60, AML; [6])","IC50 (HL60/RV, MDR + AML; [6])","IC50 (L540cy, HL [2]; [7])","IC50 (Karpas299, ALCL; [9])","IC50 (L428, MDR + HL [3]; [11])","IC50 (HL60, AML; [13])","IC50 (HL60/RV, MDR + AML; [13])","IC50 (L540cy, HL [2]; [15])",also measured
CCO[C@H](C[C@H](C(C)C)N(C)C(=O)[C@@H](NC(=O)[C@H]1[C@H]2CC[C@H](CC2)N1C)[C@@H](C)CC)c1nc(C(=O)N[C@@H](Cc2ccccc2)C[C@H](C)C(=O)O)cs1 [Compound 218],7 nM,6 nM,9 nM,decrease in the observed cytotoxicity,24 nM,> 1000 nM,5 nM,–,–,–,–,–,–
"CCO[C@H](C[C@H](C(C)C)N(C)C(=O)[C@@H](NC(=O)C12CC(CCN1C)C2)[C@@H](C)CC)c1nc(C(=O)N[C@@H](Cc2ccccc2)C[C@H](C)C(=O)O)cs1 [Compound 217, (2S,4R)-4-(2-((1R,3R)-3-((2S,3S)—N,3-dimethyl-2-(2-methyl-2-azabicyclo[3.1.1]heptane-1-carboxamido)pentanamido)-1-ethoxy-4-methylpentyl)thiazole-4-carboxamido)-2-methyl-5-phenylpentanoic acid]",0.4 nM,0.4 nM,2 nM,most potent compounds obtained in this series,4 nM,244 nM,1 nM,–,–,–,–,–,–
"CC[C@H](C)[C@H](NC(=O)[C@H]1CCCCN1C)C(=O)N(C)[C@H](C[C@@H](OC(C)=O)c1nc(C(=O)N[C@@H](Cc2ccccc2)C[C@H](C)C(=O)O)cs1)C(C)C [Compound 7, tubulysin M, reference compound]",–,–,–,–,–,–,–,0.04 nM,0.04 nM,0.15 nM,1 nM,0.08 nM,"IC50 (Karpas299, ALCL; [8]): 0.17 nM; IC50 (L428, MDR + HL [3]; [10]): 0.11 nM; IC50 (HL60, AML; [12]): 0.3 nM; IC50 (HL60/RV, MDR + AML; [12]): 2.2 nM; IC50 (L540cy, HL [2]; [14]): 0.14 nM"
"CCO[C@H](C[C@H](C(C)C)N(C)C(=O)[C@@H](NC(=O)[C@H]1CCCCN1C)C1CCOCC1)c1nc(C(=O)N[C@@H](Cc2ccccc2)C[C@H](C)C(=O)O)cs1 [Compound 210, (2S,4R)-4-(2-((1R,3R)-1-ethoxy-4-methyl-3-((S)—N-methyl-2-((R)-1-methylpiperidine-2-carboxamido)-2-(tetrahydro-2H-pyran-4-yl)acetamido)pentyl)thiazole-4-carboxamido)-2-methyl-5-phenylpentanoic acid]",> 1000 nM,> 1000 nM,> 1000 nM,inactive against all cell lines tested,> 1000 nM,> 1000 nM,> 1000 nM,–,–,–,–,–,–
"CC[C@H](C)[C@H](NC(=O)[C@H]1CCCCN1C)C(=O)N(C)[C@H](C[C@@H](OC)c1nc(C(=O)N[C@@H](Cc2ccccc2)C[C@H](C)C(=O)O)cs1)C(C)C [Compound 40, (2S,4R)-4-(2-((1R,3R)-3-((2S,3S)—N,3-dimethyl-2-((R)-1-methylpiperidine-2-carboxamido)pentanamido)-1-methoxy-4-methylpentyl)thiazole-4-carboxamido)-2-methyl-5-phenylpentanoic acid]",–,–,–,–,–,–,–,–,–,–,–,–,"IC50 (Karpas299, ALCL; [8]): 0.19 nM; IC50 (L428, MDR + HL [3]; [10]): 0.5 nM; IC50 (HL60, AML; [12]): 0.13 nM; IC50 (HL60/RV, MDR + AML; [12]): 29 nM; IC50 (L540cy, HL [2]; [14]): 0.12 nM"
CCCO[C@H](C[C@H](C(C)C)N(C)C(=O)[C@@H](NC(=O)[C@H]1CCCC[N+]1(C)Cc1ccc(O[C@@H]2O[C@H](C(=O)O)[C@@H](O)[C@H](O)[C@H]2O)c(NC(=O)CCNC(=O)[C@H](CN)N2C(=O)C=CC2=O)c1)[C@@H](C)CC)c1nc(C(=O)N[C@@H](Cc2ccccc2)C[C@H](C)C(=O)O)cs1 (stereo partly drawn) [Compound 58],–,–,–,–,–,–,–,–,–,–,–,–,"IC50, DEL/BVR, MDR + ALCL (DEL/BVR, MDR + ALCL): 0.01 mg/L; IC50, L428, MDR + HL (L428, MDR + HL [4]): 0.117 mg/L; IC50, L540cy, HL (L540cy, HL [5]): 0.006 mg/L"
"CCCO[C@H](C[C@H](C(C)C)N(C)C(=O)[C@@H](NC(=O)[C@H]1CCCCN1C)[C@@H](C)CC)c1nc(C(=O)N[C@@H](Cc2ccccc2)C[C@H](C)C(=O)O)cs1 [Compound 42, (2S,4R)-4-(2-((1R,3R)-3-((2S,3S)—N,3-dimethyl-2-((R)-1-methylpiperidine-2-carboxamido)pentanamido)-4-methyl-1-propoxypentyl)thiazole-4-carboxamido)-2-methyl-5-phenylpentanoic add]",–,–,–,–,–,–,–,–,–,–,–,–,"IC50 (Karpas299, ALCL; Table 1 (examples), 96 hours): 0.15 nM; IC50 (L428, MDR + HL [3]; Table 1 (examples), 96 hours): 0.4 nM; IC50 (HL60, AML; [16]): 0.17 nM; IC50 (HL60/RV, MDR + AML; [16]): 14 nM; IC50 (L540cy, HL [2]; [16]): 0.13 nM"
"CCO[C@H](C[C@H](C(C)C)N(C)C(=O)[C@@H](NC(=O)[C@@]1(C)CCCN1C)[C@@H](C)CC)c1nc(C(=O)N[C@@H](Cc2ccccc2)C[C@H](C)C(=O)O)cs1 [Compound 221, (2S,4R)-4-(2-((1R,3R)-3-((2S,3S)-2-((R)-1,2-dimethylpyrrolidine-2-carboxamido)-N,3-dimethylpentanamido)-1-ethoxy-4-methylpentyl)thiazole-4-carboxamido)-2-methyl-5-phenylpentanoic acid]",2 nM,1 nM,4 nM,most potent compounds obtained in this series,12 nM,522 nM,1 nM,–,–,–,–,–,–
"CCCC(=O)O[C@H](C[C@H](C(C)C)N(C)C(=O)[C@@H](NC(=O)[C@H]1CCCCN1C)[C@@H](C)CC)c1nc(C(=O)N[C@@H](Cc2ccccc2)C[C@H](C)C(=O)O)cs1 [Compound 134, (2S,4R)-4-(2-((1R,3R)-1-(butyryloxy)-3-((2S,3S)—N,3-dimethyl-2-((R)-1-methylpiperidine-2-carboxamido)pentanamido)-4-methylpentyl)thiazole-4-carboxamido)-2-methyl-5-phenylpentanoic acid]",–,–,–,–,–,–,–,0.011 nM,0.05 nM,0.08 nM,3 nM,0.04 nM,–
"CC[C@H](C)[C@H](NC(=O)[C@H]1CCCCN1C)C(=O)N(C)[C@H](C[C@@H](OC(=O)C(C)C)c1nc(C(=O)N[C@@H](Cc2ccccc2)C[C@H](C)C(=O)O)cs1)C(C)C [Compound 135, (2S,4R)-4-(2-((1R,3R)-3-((2S,3S)—N,3-dimethyl-2-((R)-1-methylpiperidine-2-carboxamido)pentanamido)-1-(isobutyryloxy)-4-methylpentyl)thiazole-4-carboxamido)-2-methyl-5-phenylpentanoic acid]",–,–,–,–,–,–,–,0.02 nM,0.12 nM,0.1 nM,6 nM,0.1 nM,–
"CC[C@H](C)[C@H](NC(=O)[C@H]1CCCCN1C)C(=O)N(C)[C@H](C[C@@H](OC(=O)CC(C)C)c1nc(C(=O)N[C@@H](Cc2ccccc2)C[C@H](C)C(=O)O)cs1)C(C)C [Compound 136, (2S,4R)-4-(2-((1R,3R)-3-((2S,3S)—N,3-dimethyl-2-((R)-1-methylpiperidine-2-carboxamido)pentanamido)-4-methyl-1-((3-methylbutanoyl)oxy)pentyl)thiazole-4-carboxamido)-2-methyl-5-phenylpentanoic acid]",–,–,–,–,–,–,–,0.02 nM,0.11 nM,0.04 nM,6 nM,0.06 nM,–
